{"source": "ChEMBL document CHEMBL5728097", "about": "“Amino pyrazolopyrimidine compound used as neurotrophic factor tyrosine kinase receptor inhibitor” (2020)"}
{"biological_target": "High affinity nerve growth factor receptor (Homo sapiens, UniProt P04629)", "sequence (P04629 whole entry)": "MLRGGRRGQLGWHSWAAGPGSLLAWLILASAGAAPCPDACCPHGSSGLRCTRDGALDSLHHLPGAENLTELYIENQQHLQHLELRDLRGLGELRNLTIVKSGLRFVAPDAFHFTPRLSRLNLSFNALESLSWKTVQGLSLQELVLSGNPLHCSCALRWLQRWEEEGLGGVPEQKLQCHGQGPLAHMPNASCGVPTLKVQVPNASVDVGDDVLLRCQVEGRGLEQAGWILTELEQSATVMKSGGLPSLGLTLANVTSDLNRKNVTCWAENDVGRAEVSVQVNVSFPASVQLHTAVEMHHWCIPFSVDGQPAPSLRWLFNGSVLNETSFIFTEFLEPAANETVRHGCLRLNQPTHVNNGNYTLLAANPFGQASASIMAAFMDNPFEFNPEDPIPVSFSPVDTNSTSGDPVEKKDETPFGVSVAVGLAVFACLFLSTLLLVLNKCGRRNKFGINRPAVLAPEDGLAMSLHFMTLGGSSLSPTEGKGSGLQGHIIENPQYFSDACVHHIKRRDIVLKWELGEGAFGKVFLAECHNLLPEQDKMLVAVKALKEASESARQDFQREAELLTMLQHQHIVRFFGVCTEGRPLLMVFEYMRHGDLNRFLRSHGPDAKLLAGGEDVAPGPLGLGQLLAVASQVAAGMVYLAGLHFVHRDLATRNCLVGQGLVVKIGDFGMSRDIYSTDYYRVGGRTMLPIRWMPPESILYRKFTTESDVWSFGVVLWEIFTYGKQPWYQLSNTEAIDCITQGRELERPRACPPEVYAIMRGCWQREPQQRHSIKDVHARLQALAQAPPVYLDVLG", "assay": "Inhibitory Activity Assay: TrkA, TrkB and TrkC:A testing platform for TrkA, TrkB and TrkC kinase activity was established based on Homogeneous Time-Resolved Fluorescence (HTRF) assay, and the activities of the compounds were tested using the platform. The compounds were subjected to three-fold gradient dilution with 100% DMSO with a starting concentration of 1 mM (11 concentrations in total). 4 μL of diluted sample for each concentration was added to 96 μL of reaction buffer (50 mM HEPES, pH7.4, 5 mM MgCl2, 1 mM NaVO3, 0.001% Tween-20, 0.01% BSA and 1 mM DTT) and mixed homogeneously to be used as a 4* compound. The reaction buffer was used to formulate 2* TrkA, TrkB and TrkC kinases (purchased from Carna Biosciences 08-186, 08-187, 08-197, and the final concentrations thereof were 0.5 nM, 0.1 nM, and 1 nM, respectively) and 4* substrate mixture (ATP+TK peptide) (wherein the final concentrations of ATP were 40 μM, 50 μM, and 20 μM, respectively; TK peptide, HTRF® KinEASE™-TK, was purchased from Cisbio, and the final concentration thereof was 100 nM) for use. 2.5 μL of the 4* compound was added to a 384-well plate (OptiPlate-384, purchased from PerkinElmer), and then 5 μL of the 2* TrkA, TrkB and TrkC kinases were added, and mixed homogeneously by centrifugation. Then 2.5 μL of the 4* substrate mixture was added to initiate the reaction (the total reaction volume is 10 μL). The 384-well plate was placed in an incubator and incubated for 60 min at 23° C. Then the reaction was terminated by adding 5 μL of Eu3+ cryptate-labeled anti-phosphotyrosine antibody (HTRF® KinEASE™-TK, purchased from Cisbio), and 5 μL of Streptavidin-XL-665 (HTRF® KinEASE™-TK, purchased from Cisbio). After incubated for 1 hr in the incubator, the fluorescence values were read on Envision (purchased from PerkinElmer).", "units": {"IC50": "nM"}}
{"compound": "CCOC(=O)c1c(N)nn2ccc(N3C[C@H](O)CC3c3cc(F)ccc3F)nc12", "note": "(stereo partly specified)", "IC50": "< 25"}
{"compound": "CCOC(=O)c1c(N)nn2ccc(N3C[C@@H](O)CC3c3cc(F)ccc3F)nc12", "note": "(stereo partly specified)", "IC50": "< 500"}
{"compound": "CN(C)C(=O)c1c(N)nn2ccc(N3CCC[C@@H]3c3cc(F)ccc3F)nc12", "IC50": "< 25"}
{"compound": "CC(C)(C)ONC(=O)c1c(N)nn2ccc(N3CCC[C@@H]3c3cc(F)ccc3F)nc12", "IC50": "< 1"}
{"compound": "NC(=O)c1c(N)nn2ccc(N3C[C@@H](O)C[C@@H]3c3cc(F)ccc3F)nc12", "IC50": "< 25"}
{"compound": "Nc1nn2ccc(N3CCC[C@@H]3c3cc(F)ccc3F)nc2c1C(=O)NC1CCC(O)CC1", "note": "(stereo partly specified)", "IC50": "< 1"}
{"compound": "Nc1nn2ccc(N3CCC[C@@H]3c3cc(F)ccc3F)nc2c1C(=O)NOCCO", "IC50": "< 1"}
{"compound": "N#Cc1c(N)nn2ccc(N3C[C@@H](F)C[C@@H]3c3cc(F)ccc3F)nc12", "IC50": "< 1"}
{"compound": "CC(C)(CO)ONC(=O)c1c(N)nn2ccc(N3CCC[C@@H]3c3cc(F)ccc3F)nc12", "IC50": "< 1"}
{"compound": "Nc1nn2ccc(N3CCC[C@@H]3c3cc(F)ccc3F)nc2c1Br", "IC50": "< 25"}
{"compound": "CC1(C)OCC(CONC(=O)c2c(N)nn3ccc(N4CCC[C@@H]4c4cc(F)ccc4F)nc23)O1", "note": "(stereo partly specified)", "IC50": "< 1"}
